# Experimental data reported in patent US20240342116A1, “TARGETING SOX10+ BONE MARROW GLIAL CELLS FOR TREATING MYELOFIBROSIS” (The Trustees of Columbia University in the City of New York, priority 2023, published 2024).
# Entries after “also recorded” stand apart in the source; their conditions may differ.
# Key:
# [1] = target: T1, alarmin complex (S100A8/A9) (Mus musculus, UniProt P31725); details: reference 63; cited from earlier work
# T1 sequence (P31725 2-113 limits assumed): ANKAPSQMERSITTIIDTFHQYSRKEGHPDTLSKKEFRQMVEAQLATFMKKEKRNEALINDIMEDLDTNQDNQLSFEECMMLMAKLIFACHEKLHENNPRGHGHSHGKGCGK
# [2] = system: Sox10+ glial cells / ErbB3+ glial cells; assay: Use examples: treatment of a subject with myelofibrosis; details: after one or more doses
# Procedure: The subject is treated with a combined Jak inhibition and ErbB3 pathway inhibition, using, e.g., an antibody or antibody fragment agent which blocks ErbB3. […] The combined treatment targets both the hematopoietic compartment and the bone marrow niche.
# [3] = system: Sox10+ glial cells in the bone marrow; assay: Bone marrow glial cell ablation (chemical sympathectomy) with 6-OHDA in the MPLW515L PMF model
SMILES,PMF features [1],symptom(s) of myelofibrosis [2],depletion of Sox10+ glial cells in the bone marrow ([3]; 6-OHDA-treated mice),"body weight loss ([3]; 6-OHDA-treated mice, 50 mg/kg i.v. twice on alternating days)",bone marrow cellularity ([3]; MPLW515L PMF mice vs vehicle),liver size / weight ([3]; MPLW515L PMF mice vs vehicle),spleen size / weight ([3]; MPLW515L PMF mice vs vehicle),bone marrow fibrosis ([3]; MPLW515L PMF mice vs vehicle-treated control),"levels of active TGF-β in the bone marrow ([3]; bone marrow fluid, ELISA, MPLW515L PMF mice vs vehicle)","levels of active TGF-β in the serum ([3]; serum, ELISA, MPLW515L PMF mice vs vehicle)"
COc1cccc2c1c(O)c(C(=O)N(C)c1ccc(C(F)(F)F)cc1)c(=O)n2C [tasquinimod],ameliorated,–,–,–,–,–,–,–,–,–
"NCCc1cc(O)c(O)cc1O [6-OHDA, 6-hydroxydopamine]",–,one or more improvements,efficiently depleted,no significant body weight loss,significant increase,reduced; also recorded: decreased,reduced; also recorded: decreased,significantly reduced; also recorded: ameliorated,significantly reduced,without affecting
